Results on one compound are retold here after paper PMC6067006, “Functionality of Redox-Active Cysteines Is Required for Restriction of Retroviral Replication by SAMHD1” (Cell reports, 2018).

Test in all cases: NMR-based dNTPase assay, activation by GTP
What all share (assay type): biochemical

The target of test [1] is T1, SAMHD1_114–626 (HD domain construct of SAMHD1) (Homo sapiens, UniProt Q9Y3Z3, C350S).
T1 construct: HD domain construct, residues 114-626, bacterial expression; nucleotide-dependent homotetramer; 10 cysteines
T1 sequence (Q9Y3Z3 114-626 C350S): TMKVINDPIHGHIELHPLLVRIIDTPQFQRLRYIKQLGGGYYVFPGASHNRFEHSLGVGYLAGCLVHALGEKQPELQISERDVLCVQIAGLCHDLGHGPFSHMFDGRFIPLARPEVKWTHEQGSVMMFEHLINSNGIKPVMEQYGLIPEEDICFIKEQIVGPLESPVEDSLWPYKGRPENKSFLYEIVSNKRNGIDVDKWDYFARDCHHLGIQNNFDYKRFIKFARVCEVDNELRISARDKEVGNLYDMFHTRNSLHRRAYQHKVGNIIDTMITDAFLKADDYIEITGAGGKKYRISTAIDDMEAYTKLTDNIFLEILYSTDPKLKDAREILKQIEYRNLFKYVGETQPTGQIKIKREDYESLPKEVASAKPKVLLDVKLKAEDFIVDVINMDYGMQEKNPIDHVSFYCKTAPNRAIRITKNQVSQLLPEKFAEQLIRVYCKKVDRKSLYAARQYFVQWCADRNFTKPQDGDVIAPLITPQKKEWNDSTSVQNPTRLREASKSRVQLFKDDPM
The text has this:
(§1) NMR-based dNTPase assay, activation by GTP on SAMHD1_114–626 (HD domain construct of SAMHD1) | EC50) values for GTP-mediated activation for C341S and C350S were also higher

The target of test [2] is T2, SAMHD1_114–626 (HD domain construct of SAMHD1) (Homo sapiens, UniProt Q9Y3Z3, C341S).
T2 construct: HD domain construct, residues 114-626, bacterial expression; nucleotide-dependent homotetramer; 10 cysteines
T2 sequence (Q9Y3Z3 114-626 C341S): as the sequence (Q9Y3Z3 114-626 C350S) above, with C228S, S237C counted along it
Excerpt: as §1

Test [3] concerns the target T3, SAMHD1_114–626 (HD domain construct of SAMHD1) (Homo sapiens, UniProt Q9Y3Z3).
T3 construct: HD domain construct, residues 114-626, bacterial expression; nucleotide-dependent homotetramer; 10 cysteines
The method, then:
NMR-based dNTPase assay, activation by GTP on SAMHD1_114–626 (HD domain construct of SAMHD1) | kcat and EC50^GTP parameters were determined by non-linear fitting

The target of test [4] is T4, SAMHD1_114–626 (HD domain construct of SAMHD1) (Homo sapiens, UniProt Q9Y3Z3, C522S).
T4 construct: HD domain construct, residues 114-626, bacterial expression; nucleotide-dependent homotetramer; 10 cysteines
T4 sequence (Q9Y3Z3 114-626 C522S): as the sequence (Q9Y3Z3 114-626 C350S) above, with S237C, C409S counted along it
The text has this:
NMR-based dNTPase assay, activation by GTP on SAMHD1_114–626 (HD domain construct of SAMHD1) | properties of the C522S mutant were indistinguishable from those of the WT protein

pEC50: −log10 of the molar value.

T3 sequence (Q9Y3Z3 114-626): as the sequence (Q9Y3Z3 114-626 C350S) above, with S237C counted along it

The term pEC50 denotes the negative decadic logarithm of the EC50, by convention in mol/L. Low readings indicate a high EC50, high ones a low EC50. Regarding `Nc1nc2c(ncn2[C@@H]2O[C@H](COP(=O)(O)OP(=O)(O)OP(=O)(O)O)[C@@H](O)[C@H]2O)c(=O)[nH]1` [GTP], the negative-log EC50 (pEC50) in test [1] was 5.09; in test [2], 4.35; in test [3], 5.41; in test [4] it was 5.32.
